# According to patent US8461328B2, “Tricyclic heterocyclic compounds, compositions and methods of use thereof” (Genentech, Inc., priority 2010, dated 2013):
# What was measured:
# Assay type in all cases: biochemical
# JAK3 = molecular target: T1, JAK3 (Homo sapiens, UniProt P52333); experiment: JAK3 inhibition (Table 4); conditions: read-out: JAK3 Ki
# T1 construct: made in house; host or cells: SF9 insect cells (baculovirus)
# JAK2 = molecular target: T2, JAK2 (Homo sapiens, UniProt O60674); experiment: JAK2 inhibition (Table 4); conditions: read-out: JAK2 Ki
# T2 construct: made in house; host or cells: SF9 insect cells (baculovirus)
# T2 sequence (O60674 812-1132): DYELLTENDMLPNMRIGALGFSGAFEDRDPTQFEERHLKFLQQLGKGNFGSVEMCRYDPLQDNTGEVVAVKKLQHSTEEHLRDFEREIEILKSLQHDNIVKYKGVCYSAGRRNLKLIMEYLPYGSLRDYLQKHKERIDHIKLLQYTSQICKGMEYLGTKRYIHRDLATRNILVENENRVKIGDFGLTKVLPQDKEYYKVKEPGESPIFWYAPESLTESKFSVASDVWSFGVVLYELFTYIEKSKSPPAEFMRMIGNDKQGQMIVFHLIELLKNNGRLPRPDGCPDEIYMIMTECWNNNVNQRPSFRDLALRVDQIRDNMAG
# TYK2 = molecular target: T3, TYK2 (Homo sapiens, UniProt P29597); experiment: TYK2 inhibition (Table 4)
# T3 construct: made in house; host or cells: SF9 insect cells (baculovirus)
# T3 sequence (P29597 873-1187): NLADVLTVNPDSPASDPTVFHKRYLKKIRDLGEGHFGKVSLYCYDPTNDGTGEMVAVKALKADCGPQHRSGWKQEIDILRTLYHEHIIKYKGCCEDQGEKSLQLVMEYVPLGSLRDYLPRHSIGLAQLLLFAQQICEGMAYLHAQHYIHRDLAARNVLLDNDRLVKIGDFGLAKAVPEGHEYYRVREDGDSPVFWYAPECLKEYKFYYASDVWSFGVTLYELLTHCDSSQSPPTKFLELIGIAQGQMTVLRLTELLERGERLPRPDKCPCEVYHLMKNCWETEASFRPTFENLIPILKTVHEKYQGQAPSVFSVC
# JAK1 = molecular target: T4, JAK1 (Homo sapiens, UniProt P23458); experiment: JAK1 inhibition (Table 4); conditions: read-out: JAK1 Ki
# T4 construct: made in house; host or cells: SF9 insect cells (baculovirus)
# T4 sequence (P23458 852-1154): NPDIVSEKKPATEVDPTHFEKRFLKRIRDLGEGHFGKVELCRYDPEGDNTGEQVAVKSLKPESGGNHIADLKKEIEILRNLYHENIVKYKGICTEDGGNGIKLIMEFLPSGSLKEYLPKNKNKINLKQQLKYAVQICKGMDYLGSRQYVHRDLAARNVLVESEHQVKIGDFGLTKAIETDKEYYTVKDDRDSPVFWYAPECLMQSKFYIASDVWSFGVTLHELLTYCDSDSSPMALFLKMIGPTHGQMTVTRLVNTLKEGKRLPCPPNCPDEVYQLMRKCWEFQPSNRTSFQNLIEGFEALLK
# T1 sequence (P52333 783-1124): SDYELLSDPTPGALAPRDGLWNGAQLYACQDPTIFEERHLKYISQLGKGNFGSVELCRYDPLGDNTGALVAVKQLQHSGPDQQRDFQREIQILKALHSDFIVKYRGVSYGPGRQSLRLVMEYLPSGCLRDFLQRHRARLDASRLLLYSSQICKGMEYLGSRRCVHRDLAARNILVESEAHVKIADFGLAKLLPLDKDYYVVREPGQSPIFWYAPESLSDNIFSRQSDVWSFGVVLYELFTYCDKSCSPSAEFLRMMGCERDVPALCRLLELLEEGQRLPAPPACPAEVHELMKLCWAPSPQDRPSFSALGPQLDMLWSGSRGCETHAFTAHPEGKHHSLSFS
Compound,Ki (JAK3),Ki (JAK2),Ki (TYK2),Ki (JAK1)
"O=C(CCC(F)(F)F)NC1CCC(n2cnc3cnc4[nH]ccc4c32)C1 (racemic) [Example 732, 4,4,4-Trifluoro-N-[3-(6H-1,3,5,6-tetraaza-as-indacen-1-yl)-cyclopentyl]-butyramide]",16.2 nM,8.59 nM,64.7 nM,2.85 nM
"Cc1nc2cnc3[nH]ccc3c2n1C1CCC(NC(=O)CC#N)C1 (racemic) [Example 728, 2-Cyano-N-[3-(2-methyl-6H-1,3,5,6-tetraaza-as-indacen-1-yl)-cyclopentyl]-acetamide]",2.26 nM,6.24 nM,22.4 nM,1.52 nM
"CC(=O)NCc1nc2cnc3[nH]ccc3c2n1C1CCNCC1 [Example 207, N-(1-Piperidin-4-yl-1,6-dihydro-1,2,3,5,6-tetraaza-as-indacen-2-ylmethyl)-acetamide]",3010 nM,1870 nM,1210 nM,78.1 nM
"CC(=O)N1CCC(c2nc3cnc4[nH]ccc4c3n2C2CCN(C(C)CC#N)CC2)C1 (racemic) [Example 397, 3-{4-[2-(1-Acetyl-pyrrolidin-3-yl)-6H-1,3,5,6-tetraaza-as-indacen-1-yl]-piperidin-1-yl}-butyronitrile]",114 nM,62.4 nM,269 nM,29.9 nM
"O=C(Cc1nc2cnc3[nH]ccc3c2n1C1CCCOC1)N1CCC1 (racemic) [Example 967, 1-Azetidin-1-yl-2-[1-(tetrahydro-pyran-3-yl)-1,6-dihydro-1,3,5,6-tetraaza-as-indacen-2-yl]-ethanone]",484 nM,776 nM,1060 nM,131 nM
"O=C([C@H]1CC[C@H](n2cnc3cnc4[nH]ccc4c32)CC1)N1CCOCC1 [Example 166, Trans Morpholin-4-yl-[4-(6H-1,2,3,5,6-tetraaza-as-indacen-1-yl)-cyclohexyl]-methanone]",255 nM,151 nM,1020 nM,145 nM
"CC1(n2cnc3cnc4[nH]ccc4c32)CCN(Cc2cncs2)CC1 [Example 755, 1-(4-Methyl-1-thiazol-5-ylmethyl-piperidin-4-yl)-1,6-dihydro-1,3,5,6-tetraaza-as-indacene]",93.1 nM,33.7 nM,211 nM,7.15 nM
"N#Cc1ccc(CN2CCC[C@@H](n3cnc4cnc5[nH]ccc5c43)C2)cc1 [Example 40, 4-[(R)-3-(6H-1,3,5,6-Tetraaza-as-indacen-1-yl)-piperidin-1-ylmethyl]benzonitrile]",66.9 nM,17.8 nM,107 nM,6.35 nM
"Cc1noc(CN2CC[C@H](n3c([C@@H](C)O)nc4cnc5[nH]ccc5c43)C2)n1 [Example 935, (R)-1-{1-[(S)-1-(3-Methyl-[1,2,4]oxadiazol-5-ylmethyl)-pyrrolidin-3-yl]-1,6-dihydro-1,3,5,6-tetraaza-as-indacen-2-yl}-ethanol]",394 nM,1060 nM,542 nM,65.5 nM
"COC(=O)N1CCC(n2c([C@@H](C)O)nc3cnc4[nH]ccc4c32)CC1 [Example 929, 4-[2-((R)-1-Hydroxy-ethyl)-6H-1,3,5,6-tetraaza-as-indacen-1-yl]-piperidine-1-carboxylic acid methyl ester]",185 nM,578 nM,281 nM,106 nM
"N#CCCN1CCC(n2c(CC(N)=O)nc3cnc4[nH]ccc4c32)CC1 [Example 264, 2-{1-[1-(2-Cyano-ethy)-piperidin-4-yl]-1,6-dihydro-1,3,5,6-tetraaza-as-indacen-2-yl}-acetamide]",14.1 nM,26.7 nM,63.4 nM,5.32 nM
"N#CC1CCC(n2c(CO)nc3cnc4[nH]ccc4c32)CC1 (stereo not shown) [Example 777, 4-(2-Hydroxymethyl-6H-1,3,5,6-tetraaza-as-indacen-1-yl)-cyclohexanecarbonitrile]",1.04 nM,6.86 nM,0.64 nM,1.3 nM

# The remaining compounds from weak to strong by Ki (JAK3), led by results:
Ki (JAK3),Ki (JAK2),Ki (TYK2),Ki (JAK1),Compound
904 nM,1860 nM,232 nM,65.1 nM,"CCOC(=O)N1CC[C@H](n2c([C@@H](C)O)nc3cnc4[nH]ccc4c32)C1 [Example 931, (S)-3-[2-((R)-1-Hydroxy-ethyl)-6H-1,3,5,6-tetraaza-as-indacen-1-yl]-pyrrolidine-1-carboxylic acid ethyl ester]"
823 nM,913 nM,681 nM,137 nM,"C[C@@H](N)c1nc2cnc3[nH]ccc3c2n1C1CCCOC1 (single isomer, unassigned) [Example 669, 1-[1-(Tetrahydro-pyran-3-yl)-1,6-dihydro-1,2,3,5,6-tetraaza-as-indacen-2-yl]-ethylamine]"
412 nM,128 nM,261 nM,38.2 nM,"FC1CNCCC1n1cnc2cnc3[nH]ccc3c21 (racemic) [Example 520, 1-(3-Fluoro-piperidin-4-yl)-1,6-dihydro-1,3,5,6-tetraaza-as-indacene]"
311 nM,340 nM,665 nM,48.6 nM,"OC1CCN(Cc2nc3cnc4[nH]ccc4c3n2C2CCN(CC(F)F)CC2)CC1 [Example 705, 1-{1-[1-(2,2-Difluoro-ethyl)-piperidin-4-yl]-1,6-dihydro-1,2,3,5,6-tetraaza-as-indacen-2-ylmethyl}-piperidin-4-ol]"
282 nM,5.32 nM,30.7 nM,3.91 nM,"O=S(=O)(CCO)N1CCC(n2cnc3cnc4[nH]ccc4c32)CC1 [Example 194, 2-[4-(6H-1,2,3,5,6-Tetraaza-as-indacen-1-yl)-piperidine-1-sulfonyl]-ethanol]"
192 nM,17.6 nM,169 nM,4.87 nM,"N#Cc1ccc(CN2CC[C@@H](n3cnc4cnc5[nH]ccc5c43)C2)cc1 [Example 191, 4-[(R)-3-(6H-1,2,3,5,6-Tetraaza-as-indacen-1-yl)-pyrrolidin-1-ylmethyl]-benzonitrile]"
190 nM,950 nM,347 nM,87.2 nM,"C[C@@H](O)c1nc2cnc3[nH]ccc3c2n1[C@H]1CCN(S(C)(=O)=O)C1 [Example 930, (R)-1-[1-((S)-1-Methanesulfonyl-pyrrolidin-3-yl)-1,6-dihydro-1,3,5,6-tetraaza-as-indacen-2-yl]-ethanol]"
144 nM,44.2 nM,198 nM,11.3 nM,"N#CCC(=O)N1CC[C@@H](n2cnc3cnc4[nH]ccc4c32)C1 [Example 37, 3-Oxo-3-[(R)-3-(6H-1,3,5,6-tetraaza-as-indacen-1-yl)-pyrrolidin-1-yl]propionitrile]"
95.5 nM,290 nM,86.2 nM,35 nM,"OC(c1nc2cnc3[nH]ccc3c2n1C1CCCCC1)C1CCOCC1 (racemic) [Example 875, (1-Cyclohexyl-1,6-dihydro-1,3,5,6-tetraaza-as-indacen-2-yl)-(tetrahydro-pyran-4-yl)-methanol]"
90.7 nM,88.4 nM,580 nM,11.2 nM,"Cn1ccc(CCc2nc3cnc4[nH]ccc4c3n2C2CCN(CCC#N)CC2)n1 [Example 814, 3-(4-{2-[2-(1-Methyl-1H-pyrazol-3-yl)-ethyl]-6H-1,3,5,6-tetraaza-as-indacen-1-yl}-piperidin-1-yl)-propionitrile]"
29.6 nM,59.1 nM,320 nM,37.9 nM,"N#CCCN1CCC(n2c(COCc3ccc(F)c(F)c3)nc3cnc4[nH]ccc4c32)CC1 [Example 835, 3-{4-[2-(3,4-Difluoro-benzyloxymethyl)-6H-1,3,5,6-tetraaza-as-indacen-1-yl]-piperidin-1-yl}-propionitrile]"
26.5 nM,0.98 nM,35.7 nM,0.3 nM,"N#Cc1cccc(CN2CCC(n3cnc4cnc5[nH]ccc5c43)CC2)c1 [Example 49, 3-[4-(6H-1,3,5,6-Tetraaza-as-indacen-1-yl)-piperidin-1-ylmethyl]benzonitrile]"
16.2 nM,22.3 nM,104 nM,73.8 nM,"Cc1nc2cnc3[nH]ccc3c2n1C1CCOC(C)(C)C1 (stereo not shown) [Example 178, 1-(2,2-Dimethyl-tetrahydro-pyran-4-yl)-2-methyl-1,6-dihydro-1,2,3,5,6-tetraaza-as-indacene]"
11.7 nM,95.3 nM,1850 nM,27.8 nM,"O=C(Cc1nc2cnc3[nH]ccc3c2n1C1CCN(Cc2ccccc2)CC1)N1CC(F)(F)C1 [Example 259, 2-[1-(1-Benzyl-piperidin-4-yl)-1,6-dihydro-1,3,5,6-tetraaza-as-indacen-2-yl)-1-(3,3-difluoro-azetidin-1-yl)-ethanone]"
8.96 nM,15.8 nM,177 nM,2.83 nM,"Cc1nc2cnc3[nH]ccc3c2n1C1CCC(NC(=O)N(C)CC(F)(F)F)CC1 (stereo not shown) [Example 749, 1-methyl-3-[4-(2-methyl-6H 1,3,5,6-tetraaza-as-indacen-1-yl)-cyclohexyl]-1-(2,2,2-trifluoro-ethyl)-urea]"
8.11 nM,24.4 nM,1470 nM,3.74 nM,"CC(C)c1nc2cnc3[nH]ccc3c2n1C1CCN(Cc2ccccc2)CC1 [Example 223, 1-(1-Benzyl-piperidin-4-yl)-2-isopropyl-1,6-dihydro-1,3,5,6-tetraaza-as-indacene]"
